PubChem BioAssay (NCI)
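Tested at 5 concentrations; 48 h exposure; 96-well plates; endpoints linearly interpolated, else capped at highest concentration. The concentration for full growth arrest is given as TGI.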

Assays:
Test in all cases: NCI anticancer screen, dose series, 48 h
K-562 leukemia = system: K-562 leukemia
ACHN renal = system: ACHN renal
LOX IMVI melanoma = system: LOX IMVI melanoma
OVCAR-5 ovarian = system: OVCAR-5 ovarian
MDA-N = system: MDA-N
HOP-92 NSCLC = system: HOP-92 NSCLC
IGROV1 ovarian = system: IGROV1 ovarian
MDA-MB-231 breast = system: MDA-MB-231 breast
SR leukemia = system: SR leukemia
SN12C renal = system: SN12C renal
HS 578T breast = system: HS 578T breast
HOP-62 NSCLC = system: HOP-62 NSCLC
M14 melanoma = system: M14 melanoma
SNB-75 CNS = system: SNB-75 CNS
BT-549 breast = system: BT-549 breast
UO-31 renal = system: UO-31 renal
UACC-257 melanoma = system: UACC-257 melanoma
NCI-H226 lung = system: NCI-H226 lung
786-0 renal = system: 786-0 renal
HCT-15 colon = system: HCT-15 colon
EKVX NSCLC = system: EKVX NSCLC
A549 NSCLC = system: A549 NSCLC
CCRF-CEM leukemia = system: CCRF-CEM leukemia
DU-145 prostate = system: DU-145 prostate
MCF7 breast = system: MCF7 breast
A498 renal = system: A498 renal
NCI-H23 lung = system: NCI-H23 lung
KM12 colon = system: KM12 colon
SK-MEL-5 melanoma = system: SK-MEL-5 melanoma
RPMI-8226 leukemia = system: RPMI-8226 leukemia
SF-268 CNS = system: SF-268 CNS
COLO 205 colon = system: COLO 205 colon
SF-539 CNS = system: SF-539 CNS
SF-295 CNS = system: SF-295 CNS
HCT-116 colon = system: HCT-116 colon
SNB-19 CNS = system: SNB-19 CNS
SW-620 colon = system: SW-620 colon
SK-OV-3 ovarian = system: SK-OV-3 ovarian
MALME-3M melanoma = system: MALME-3M melanoma
HT29 colon = system: HT29 colon
OVCAR-8 ovarian = system: OVCAR-8 ovarian
MDA-MB-435 = system: MDA-MB-435
SK-MEL-28 melanoma = system: SK-MEL-28 melanoma
PC-3 prostate = system: PC-3 prostate
CAKI-1 renal = system: CAKI-1 renal
MOLT-4 leukemia = system: MOLT-4 leukemia
NCI-H522 lung = system: NCI-H522 lung
TK-10 renal = system: TK-10 renal
OVCAR-4 ovarian = system: OVCAR-4 ovarian
UACC-62 melanoma = system: UACC-62 melanoma
HL-60(TB) leukemia = system: HL-60(TB) leukemia
U251 CNS = system: U251 CNS
SK-MEL-2 melanoma = system: SK-MEL-2 melanoma
HCC-2998 colon = system: HCC-2998 colon
OVCAR-3 ovarian = system: OVCAR-3 ovarian
NCI-H460 lung = system: NCI-H460 lung
T-47D breast = system: T-47D breast
RXF 393 renal = system: RXF 393 renal

## COC(=O)C1CCC(=O)N1C(c1ccc2c(c1)OCO2)c1cc(OC)c(OC)c(OC)c1 (stereo not drawn)
K-562 leukemia
  TGI: > 100 µM
ACHN renal
  TGI: > 100 µM
LOX IMVI melanoma
  TGI: > 100 µM
OVCAR-5 ovarian
  TGI: > 100 µM
MDA-N
  TGI: > 100 µM
HOP-92 NSCLC
  TGI: > 100 µM
IGROV1 ovarian
  TGI: > 100 µM
MDA-MB-231 breast
  TGI: > 100 µM
SR leukemia
  TGI: > 100 µM
SN12C renal
  TGI: > 100 µM
HS 578T breast
  TGI: > 100 µM
HOP-62 NSCLC
  TGI: > 100 µM
M14 melanoma
  TGI: > 100 µM
SNB-75 CNS
  TGI: > 100 µM
BT-549 breast
  TGI: > 100 µM
UO-31 renal
  TGI: > 100 µM
UACC-257 melanoma
  TGI: > 100 µM
NCI-H226 lung
  TGI: > 100 µM
786-0 renal
  TGI: > 100 µM
HCT-15 colon
  TGI: > 100 µM
EKVX NSCLC
  TGI: > 100 µM
A549 NSCLC
  TGI: > 100 µM
CCRF-CEM leukemia
  TGI: > 100 µM
DU-145 prostate
  TGI: > 100 µM
MCF7 breast
  TGI: > 100 µM
A498 renal
  TGI: > 100 µM
NCI-H23 lung
  TGI: > 100 µM
KM12 colon
  TGI: > 100 µM
SK-MEL-5 melanoma
  TGI: > 100 µM
RPMI-8226 leukemia
  TGI: > 100 µM
SF-268 CNS
  TGI: > 100 µM
COLO 205 colon
  TGI: > 100 µM
SF-539 CNS
  TGI: > 100 µM
SF-295 CNS
  TGI: > 100 µM
HCT-116 colon
  TGI: > 100 µM
SNB-19 CNS
  TGI: > 100 µM
SW-620 colon
  TGI: > 100 µM
SK-OV-3 ovarian
  TGI: > 100 µM
MALME-3M melanoma
  TGI: > 100 µM
HT29 colon
  TGI: > 100 µM
OVCAR-8 ovarian
  TGI: > 100 µM
MDA-MB-435
  TGI: > 100 µM
SK-MEL-28 melanoma
  TGI: > 100 µM
PC-3 prostate
  TGI: > 100 µM
CAKI-1 renal
  TGI: > 100 µM
MOLT-4 leukemia
  TGI: > 100 µM
NCI-H522 lung
  TGI: 24.4 µM
TK-10 renal
  TGI: > 100 µM
OVCAR-4 ovarian
  TGI: > 100 µM
UACC-62 melanoma
  TGI: > 100 µM
HL-60(TB) leukemia
  TGI: > 100 µM
U251 CNS
  TGI: > 100 µM
SK-MEL-2 melanoma
  TGI: > 100 µM
HCC-2998 colon
  TGI: > 100 µM
OVCAR-3 ovarian
  TGI: > 100 µM
NCI-H460 lung
  TGI: > 100 µM

## CCC1C(c2ccccc2O)c2cc3c(cc2OC1N1CCOCC1)OCO3 (stereo not drawn)
K-562 leukemia
  TGI: 31.5 µM
ACHN renal
  TGI: 26 µM
LOX IMVI melanoma
  TGI: 30.2 µM
OVCAR-5 ovarian
  TGI: 28.7 µM
MDA-N
  TGI: 28.6 µM
HOP-92 NSCLC
  TGI: 27.6 µM
IGROV1 ovarian
  TGI: 32.3 µM
MDA-MB-231 breast
  TGI: 33.5 µM
SR leukemia
  TGI: 30.8 µM
SN12C renal
  TGI: 29.4 µM
HS 578T breast
  TGI: 39.6 µM
HOP-62 NSCLC
  TGI: 28.8 µM
M14 melanoma
  TGI: 30.6 µM
SNB-75 CNS
  TGI: 22.7 µM
BT-549 breast
  TGI: 29.3 µM
UO-31 renal
  TGI: 27 µM
UACC-257 melanoma
  TGI: 31.6 µM
NCI-H226 lung
  TGI: 36.3 µM
T-47D breast
  TGI: 28.8 µM
786-0 renal
  TGI: 43.9 µM
HCT-15 colon
  TGI: 21.4 µM
EKVX NSCLC
  TGI: 25.4 µM
A549 NSCLC
  TGI: 29.9 µM
CCRF-CEM leukemia
  TGI: 32.7 µM
RXF 393 renal
  TGI: 28.9 µM
DU-145 prostate
  TGI: 28 µM
MCF7 breast
  TGI: 28.2 µM
A498 renal
  TGI: 27.5 µM
NCI-H23 lung
  TGI: 34.5 µM
KM12 colon
  TGI: 27.7 µM
SK-MEL-5 melanoma
  TGI: 30.5 µM
RPMI-8226 leukemia
  TGI: 43.8 µM
SF-268 CNS
  TGI: 31.8 µM
COLO 205 colon
  TGI: 30.9 µM
SF-539 CNS
  TGI: 30.7 µM
SF-295 CNS
  TGI: 28.6 µM
HCT-116 colon
  TGI: 26.5 µM
SNB-19 CNS
  TGI: 28.6 µM
SW-620 colon
  TGI: 33 µM
SK-OV-3 ovarian
  TGI: 39.6 µM
MALME-3M melanoma
  TGI: 26 µM
HT29 colon
  TGI: 26.4 µM
OVCAR-8 ovarian
  TGI: 46.2 µM
MDA-MB-435
  TGI: 28.9 µM
SK-MEL-28 melanoma
  TGI: 33.9 µM
PC-3 prostate
  TGI: 26 µM
CAKI-1 renal
  TGI: 34.1 µM
MOLT-4 leukemia
  TGI: 27 µM
NCI-H522 lung
  TGI: 28 µM
TK-10 renal
  TGI: 28 µM
UACC-62 melanoma
  TGI: 27.1 µM
HL-60(TB) leukemia
  TGI: 38.8 µM
U251 CNS
  TGI: 26.4 µM
SK-MEL-2 melanoma
  TGI: 30.8 µM
HCC-2998 colon
  TGI: 31 µM
OVCAR-3 ovarian
  TGI: 25.4 µM
NCI-H460 lung
  TGI: 29.7 µM
